Our source for the IC50 values is patent publication US9040530B2, “1,2,4-triazine-6-carboxamide kinase inhibitors” (Portola Pharmaceuticals, Inc., priority 2012, dated 2015).

The structures appear in SMILES notation. Where only a bound is given, the exact number is not on record here.

The experiment addresses T1, full length active recombinant SYK enzyme (Homo sapiens, UniProt P43405).
T1 construct: full length active recombinant SYK enzyme (Millipore, Calif.); purchased Millipore
Put plainly: Inhibition of Syk tyrosine phosphorylation activity (LANCE TR-FRET kinase assay). Type of experiment: biochemical. The conditions noted are these: 1 nM active SYK enzyme, 550 nM SYK-substrate, 100 μM ATP, 1 hour at room temperature. (TR-FRET usually uses a lanthanide donor and a delayed reading to cut background.)

The IC50 is the concentration that inhibits the measured activity by half. On to `Cc1cc(Nc2nc(N[C@@H]3CCOC[C@@H]3N)nnc2C(N)=O)ccc1Cl` [Example 224, 3-(((3R,4R)-3-aminotetrahydro-2H-pyran-4-yl)amino)-5-((4-chloro-3-methylphenyl)amino)-1,2,4-triazine-6-carboxamide], for which the IC50 was in the range of 0.001 to 0.01 µM.

`Cc1ccc(Nc2nc(N[C@@H]3CCOC[C@@H]3N)nnc2C(N)=O)cc1Cl` [Example 225, 3-(((3R,4R)-3-aminotetrahydro-2H-pyran-4-yl)amino)-5-((3-chloro-4-methylphenyl)amino)-1,2,4-triazine-6-carboxamide]: the IC50 lay in the range of 0.001 to 0.01 µM.

For `Cc1ccc(Nc2nc(N[C@H](CC3CC3)C(N)=O)nnc2C(N)=O)cc1` [Example 226, (R)-3-((1-amino-3-cyclopropyl-1-oxopropan-2-yl)amino)-5-(p-tolylamino)-1,2,4-triazine-6-carboxamide], the IC50 is 0.01 to 0.1 µM.

Turning to `CC[C@@H](Nc1nnc(C(N)=O)c(Nc2ccc3c(c2)COCC3)n1)C(N)=O` [Example 227, (R)-3-((1-amino-1-oxobutan-2-yl)amino)-5-(isochroman-7-ylamino)-1,2,4-triazine-6-carboxamide], the IC50 lay in the range of 0.001 to 0.01 µM.

With `NC(=O)c1nnc(N[C@@H]2CCCC(F)(F)[C@@H]2N)nc1Nc1ccc2c(c1)COCC2` [Example 228, 3-(((1R,2R)-2-amino-3,3-difluorocyclohexyl)amino)-5-(isochroman-7-ylamino)-1,2,4-triazine-6-carboxamide], the IC50 lay within 0.001 to 0.01 µM.

For the compound `COc1cc(Nc2nc(N[C@@H]3CCCC(F)(F)[C@@H]3N)nnc2C(N)=O)ccc1C` [Example 229, 3-(((1R,2R)-2-amino-3,3-difluorocyclohexyl)amino)-5-((3-methoxy-4-methylphenyl)amino)-1,2,4-triazine-6-carboxamide], the IC50 lay within 0.01 to 0.1 µM.

Consider `COc1cc(Nc2nc(N[C@@H]3CCCC(F)(F)[C@@H]3N)nnc2C(N)=O)ccc1Cl` [Example 230, 3-(((1R,2R)-2-amino-3,3-difluorocyclohexyl)amino)-5-((4-chloro-3-methoxyphenyl)amino)-1,2,4-triazine-6-carboxamide], for which the IC50 fell in the range of 0.1 to 1 µM.

Take `CC[C@@H](Nc1nnc(C(N)=O)c(Nc2ccc(C)c(OC)c2)n1)C(N)=O` [Example 231, (R)-3-((1-amino-1-oxobutan-2-yl)amino)-5-((3-methoxy-4-methylphenyl)amino)-1,2,4-triazine-6-carboxamide]: the IC50 is 0.01 to 0.1 µM.

On to `CC[C@@H](Nc1nnc(C(N)=O)c(Nc2ccc(Cl)c(OC)c2)n1)C(N)=O` [Example 232, (R)-3-((1-amino-1-oxobutan-2-yl)amino)-5-((4-chloro-3-methoxyphenyl)amino)-1,2,4-triazine-6-carboxamide], for which the IC50 fell in the range of 0.01 to 0.1 µM.

Turning to `Cc1ccc(Nc2nc(N[C@@H]3CCCC(F)(F)[C@@H]3N)nnc2C(N)=O)cc1C#N` [Example 233, 3-(((1R,2R)-2-amino-3,3-difluorocyclohexyl)amino)-5-((3-cyano-4-methylphenyl)amino)-1,2,4-triazine-6-carboxamide], the IC50 lay in the range of 0.1 to 1 µM.

As for `CC[C@@H](Nc1nnc(C(N)=O)c(Nc2ccc(C)c(C#N)c2)n1)C(N)=O` [Example 234, (R)-3-((1-amino-1-oxobutan-2-yl)amino)-5-((3-cyano-4-methylphenyl)amino)-1,2,4-triazine-6-carboxamide], the IC50 lay within 0.1 to 1 µM.

Take `CC[C@@H](Nc1nnc(C(N)=O)c(Nc2ccc(Cl)c(Cl)c2)n1)C(N)=O` [Example 235, (R)-3-((1-amino-1-oxobutan-2-yl)amino)-5-((3,4-dichlorophenyl)amino)-1,2,4-triazine-6-carboxamide]: the IC50 lay in the range of 0.01 to 0.1 µM.

As for `NC(=O)c1nnc(N[C@@H]2CCCC(F)(F)[C@@H]2N)nc1Nc1ccc(Cl)c(Cl)c1` [Example 236, 3-(((1R,2R)-2-amino-3,3-difluorocyclohexyl)amino)-5-((3,4-dichlorophenyl)amino)-1,2,4-triazine-6-carboxamide], the IC50 lay within 0.1 to 1 µM.

With `NC(=O)c1nnc(N[C@@H]2CCCC(F)(F)[C@@H]2N)nc1Nc1ccc2c(c1)CCCC2` [Example 237, 3-(((1R,2R)-2-amino-3,3-difluorocyclohexyl)amino)-5-((5,6,7,8-tetrahydronaphthalen-2-yl)amino)-1,2,4-triazine-6-carboxamide], the IC50 lay within 0.01 to 0.1 µM.

With `NC(=O)c1nnc(N[C@@H]2CCCC(F)(F)[C@@H]2N)nc1Nc1cccc(C(F)(F)F)c1` [Example 238, 3-(((1R,2R)-2-amino-3,3-difluorocyclohexyl)amino)-5-((3-(trifluoromethyl)phenyl)amino)-1,2,4-triazine-6-carboxamide], the IC50 was above 1 µM.

For the compound `NC(=O)c1nnc(N[C@@H]2CCCC(F)(F)[C@@H]2N)nc1Nc1ccc(C(F)(F)F)cc1` [Example 239, 3-(((1R,2R)-2-amino-3,3-difluorocyclohexyl)amino)-5-((4-(trifluoromethyl)phenyl)amino)-1,2,4-triazine-6-carboxamide], the IC50 was in the range of 0.01 to 0.1 µM.

On to `CC[C@@H](Nc1nnc(C(N)=O)c(Nc2ccc(Cl)c(C(F)(F)F)c2)n1)C(N)=O` [Example 240, (R)-3-((1-amino-1-oxobutan-2-yl)amino)-5-((4-chloro-3-(trifluoromethyl)phenyl)amino)-1,2,4-triazine-6-carboxamide], for which the IC50 was in the range of 0.1 to 1 µM.

On to `CC[C@@H](Nc1nnc(C(N)=O)c(Nc2ccc(C(F)(F)F)c(Cl)c2)n1)C(N)=O` [Example 241, (R)-3-((1-amino-1-oxobutan-2-yl)amino)-5-((3-chloro-4-(trifluoromethyl)phenyl)amino)-1,2,4-triazine-6-carboxamide], for which the IC50 was 0.01 to 0.1 µM.

Regarding `NC(=O)c1nnc(N[C@@H]2CCOC[C@@H]2N)nc1Nc1ccc(C(F)(F)F)cc1` [Example 242, 3-(((3R,4R)-3-aminotetrahydro-2H-pyran-4-yl)amino)-5-((4-(trifluoromethyl)phenyl)amino)-1,2,4-triazine-6-carboxamide], the concentration for half-maximal inhibition (IC50) fell in the range of 0.01 to 0.1 µM.

Consider `NC(=O)c1nnc(N[C@@H]2CCOC[C@@H]2N)nc1Nc1ccc(Cl)cc1` [Example 243, 3-(((3R,4R)-3-aminotetrahydro-2H-pyran-4-yl)amino)-5-((4-chlorophenyl)amino)-1,2,4-triazine-6-carboxamide], for which the IC50 was 0.01 to 0.1 µM.

Regarding `NC(=O)c1nnc(N[C@@H]2CCOC[C@@H]2N)nc1Nc1ccc(Cl)c(Cl)c1` [Example 244, 3-(((3R,4R)-3-aminotetrahydro-2H-pyran-4-yl)amino)-5-((3,4-dichlorophenyl)amino)-1,2,4-triazine-6-carboxamide], the IC50 fell in the range of 0.01 to 0.1 µM.

For the compound `NC(=O)c1nnc(N[C@@H]2CCCC(F)(F)[C@@H]2N)nc1Nc1ccc2scnc2c1` [Example 245, 3-(((1R,2R)-2-amino-3,3-difluorocyclohexyl)amino)-5-(benzo[d]thiazol-5-ylamino)-1,2,4-triazine-6-carboxamide], the IC50 was in the range of 0.01 to 0.1 µM.

Consider `CC[C@@H](Nc1nnc(C(N)=O)c(Nc2ccc3scnc3c2)n1)C(N)=O` [Example 246, (R)-3-((1-amino-1-oxobutan-2-yl)amino)-5-(benzo[d]thiazol-5-ylamino)-1,2,4-triazine-6-carboxamide], for which the IC50 fell in the range of 0.01 to 0.1 µM.

Regarding `NC(=O)c1nnc(N[C@@H]2CCOC[C@@H]2N)nc1Nc1ccc2scnc2c1` [Example 247, 3-(((3R,4R)-3-aminotetrahydro-2H-pyran-4-yl)amino)-5-(benzo[d]thiazol-5-ylamino)-1,2,4-triazine-6-carboxamide], the IC50 lay within 0.01 to 0.1 µM.

For the compound `CC(C)C[C@@H](Nc1nnc(C(N)=O)c(Nc2ccc(Cl)cc2)n1)C(N)=O` [Example 248, (R)-3-((1-amino-4-methyl-1-oxopentan-2-yl)amino)-5-((4-chlorophenyl)amino)-1,2,4-triazine-6-carboxamide], the IC50 was 0.01 to 0.1 µM.

For the compound `NC(=O)c1nnc(N[C@H](CC2CC2)C(N)=O)nc1Nc1ccc(Cl)cc1` [Example 249, (R)-3-((1-amino-3-cyclopropyl-1-oxopropan-2-yl)amino)-5-((4-chlorophenyl)amino)-1,2,4-triazine-6-carboxamide], the IC50 is 0.01 to 0.1 µM.

Turning to `NC(=O)c1nnc(N[C@@H]2CCCC(F)(F)[C@@H]2N)nc1Nc1ccc(Cl)cc1` [Example 250, 3-(((1R,2R)-2-amino-3,3-difluorocyclohexyl)amino)-5-((4-chlorophenyl)amino)-1,2,4-triazine-6-carboxamide], the IC50 lay in the range of 0.1 to 1 µM.

As to `NC(=O)c1nnc(N[C@@H]2CCOC[C@@H]2N)nc1Nc1cccc(C(F)(F)F)c1` [Example 251, 3-(((3R,4R)-3-aminotetrahydro-2H-pyran-4-yl)amino)-5-((3-(trifluoromethyl)phenyl)amino)-1,2,4-triazine-6-carboxamide], the IC50 was in the range of 0.01 to 0.1 µM.

With `NC(=O)c1nnc(N[C@@H]2CCOC[C@@H]2N)nc1Nc1cccc(-c2ncco2)c1` [Example 252, 3-(((3R,4R)-3-aminotetrahydro-2H-pyran-4-yl)amino)-5-((3-(oxazol-2-yl)phenyl)amino)-1,2,4-triazine-6-carboxamide], the IC50 lay within 0.001 to 0.01 µM.

For the compound `NC(=O)c1nnc(N[C@@H]2CCOC[C@@H]2N)nc1Nc1ccc(-c2ncco2)cc1` [Example 253, 3-(((3R,4R)-3-aminotetrahydro-2H-pyran-4-yl)amino)-5-((4-(oxazol-2-yl)phenyl)amino)-1,2,4-triazine-6-carboxamide], the IC50 lay in the range of 0.01 to 0.1 µM.

`NC(=O)c1nnc(N[C@H](CC2CC2)C(N)=O)nc1Nc1ccc(Cl)c(Cl)c1` [Example 254, (R)-3-((1-amino-3-cyclopropyl-1-oxopropan-2-yl)amino)-5-((3,4-dichlorophenyl)amino)-1,2,4-triazine-6-carboxamide]: the IC50 is 0.01 to 0.1 µM.

For `CC(C)C[C@@H](Nc1nnc(C(N)=O)c(Nc2ccc(Cl)c(Cl)c2)n1)C(N)=O` [Example 255, (R)-3-((1-amino-4-methyl-1-oxopentan-2-yl)amino)-5-((3,4-dichlorophenyl)amino)-1,2,4-triazine-6-carboxamide], the IC50 lay within 0.01 to 0.1 µM.

For `COc1cc(Nc2nc(N[C@@H]3CCOC[C@@H]3N)nnc2C(N)=O)ccc1Cl` [Example 256, 3-(((3R,4R)-3-aminotetrahydro-2H-pyran-4-yl)amino)-5-((4-chloro-3-methoxyphenyl)amino)-1,2,4-triazine-6-carboxamide], the IC50 fell in the range of 0.01 to 0.1 µM.
